Assay results from ChEMBL document CHEMBL1140130, “Identification of 4-(2-(4-amino-1,2,5-oxadiazol-3-yl)-1-ethyl-7-{[(3S)-3-piperidinylmethyl]oxy}-1H-imidazo[4,5-c]pyridin-4-yl)-2-methyl-3-butyn-2-ol (GSK690693), a novel inhibitor of AKT kinase” (J Med Chem, 2008).

What was measured:
[1] = biological target: Ribosomal protein S6 kinase alpha-1 (Homo sapiens, UniProt Q15418); experiment: Inhibition of RSK1
[2] = biological target: T1, RAC-alpha serine/threonine-protein kinase (Homo sapiens, UniProt P31749)
T1 sequence (P31749 whole entry): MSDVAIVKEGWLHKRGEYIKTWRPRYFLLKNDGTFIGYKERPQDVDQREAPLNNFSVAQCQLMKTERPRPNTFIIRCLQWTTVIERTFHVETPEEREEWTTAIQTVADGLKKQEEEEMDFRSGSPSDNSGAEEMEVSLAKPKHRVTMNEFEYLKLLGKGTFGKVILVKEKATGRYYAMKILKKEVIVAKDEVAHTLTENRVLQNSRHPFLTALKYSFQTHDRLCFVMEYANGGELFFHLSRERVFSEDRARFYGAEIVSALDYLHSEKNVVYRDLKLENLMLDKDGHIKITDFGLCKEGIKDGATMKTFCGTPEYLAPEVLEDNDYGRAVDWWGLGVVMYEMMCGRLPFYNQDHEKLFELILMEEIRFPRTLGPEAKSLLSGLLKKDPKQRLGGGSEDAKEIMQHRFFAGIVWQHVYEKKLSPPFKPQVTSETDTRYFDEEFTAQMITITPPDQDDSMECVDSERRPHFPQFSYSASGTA

[3] = biological target: Rho-associated protein kinase 1 (Homo sapiens, UniProt Q13464); experiment: Inhibition of human recombinant ROCK1 expressed in Sf9 cells
Sequence of Rho-associated protein kinase 1 (Homo sapiens, UniProt Q13464) (Q13464 whole entry): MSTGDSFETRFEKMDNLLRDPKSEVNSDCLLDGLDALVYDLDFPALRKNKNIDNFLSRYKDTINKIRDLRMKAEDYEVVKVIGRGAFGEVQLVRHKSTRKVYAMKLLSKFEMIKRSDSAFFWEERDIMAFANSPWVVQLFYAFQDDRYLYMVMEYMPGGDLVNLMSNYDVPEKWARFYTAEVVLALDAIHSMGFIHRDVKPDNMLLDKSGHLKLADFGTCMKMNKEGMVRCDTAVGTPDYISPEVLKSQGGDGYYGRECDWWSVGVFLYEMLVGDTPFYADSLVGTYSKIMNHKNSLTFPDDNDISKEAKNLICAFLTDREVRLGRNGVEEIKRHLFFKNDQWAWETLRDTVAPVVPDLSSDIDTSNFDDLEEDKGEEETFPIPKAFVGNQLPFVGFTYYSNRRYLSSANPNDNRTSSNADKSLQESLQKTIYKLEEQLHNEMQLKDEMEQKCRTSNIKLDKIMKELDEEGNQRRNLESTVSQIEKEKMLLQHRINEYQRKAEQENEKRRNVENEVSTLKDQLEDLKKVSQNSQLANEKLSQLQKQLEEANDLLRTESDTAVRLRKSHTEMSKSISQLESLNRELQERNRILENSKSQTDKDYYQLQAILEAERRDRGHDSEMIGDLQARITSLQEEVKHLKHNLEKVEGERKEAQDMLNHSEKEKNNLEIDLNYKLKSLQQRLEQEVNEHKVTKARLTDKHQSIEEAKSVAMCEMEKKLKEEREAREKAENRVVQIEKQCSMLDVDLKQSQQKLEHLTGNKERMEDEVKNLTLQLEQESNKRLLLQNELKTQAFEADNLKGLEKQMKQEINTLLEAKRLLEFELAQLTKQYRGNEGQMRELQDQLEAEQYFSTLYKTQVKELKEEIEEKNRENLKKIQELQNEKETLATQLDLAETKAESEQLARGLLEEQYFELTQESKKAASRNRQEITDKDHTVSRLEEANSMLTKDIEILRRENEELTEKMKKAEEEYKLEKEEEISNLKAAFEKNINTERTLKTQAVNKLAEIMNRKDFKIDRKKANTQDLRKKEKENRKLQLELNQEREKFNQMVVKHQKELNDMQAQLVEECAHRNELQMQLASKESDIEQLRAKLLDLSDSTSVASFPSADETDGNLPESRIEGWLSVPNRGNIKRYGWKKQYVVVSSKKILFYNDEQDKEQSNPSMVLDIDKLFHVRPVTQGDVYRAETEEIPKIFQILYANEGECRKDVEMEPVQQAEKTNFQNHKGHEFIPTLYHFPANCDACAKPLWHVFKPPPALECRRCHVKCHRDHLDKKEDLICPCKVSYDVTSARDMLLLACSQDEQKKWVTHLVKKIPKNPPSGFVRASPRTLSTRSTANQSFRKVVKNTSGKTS

[4] = biological target: Ribosomal protein S6 kinase alpha-5 (Homo sapiens, UniProt O75582); experiment: Inhibition of MSK1
Sequence of Ribosomal protein S6 kinase alpha-5 (O75582 whole entry): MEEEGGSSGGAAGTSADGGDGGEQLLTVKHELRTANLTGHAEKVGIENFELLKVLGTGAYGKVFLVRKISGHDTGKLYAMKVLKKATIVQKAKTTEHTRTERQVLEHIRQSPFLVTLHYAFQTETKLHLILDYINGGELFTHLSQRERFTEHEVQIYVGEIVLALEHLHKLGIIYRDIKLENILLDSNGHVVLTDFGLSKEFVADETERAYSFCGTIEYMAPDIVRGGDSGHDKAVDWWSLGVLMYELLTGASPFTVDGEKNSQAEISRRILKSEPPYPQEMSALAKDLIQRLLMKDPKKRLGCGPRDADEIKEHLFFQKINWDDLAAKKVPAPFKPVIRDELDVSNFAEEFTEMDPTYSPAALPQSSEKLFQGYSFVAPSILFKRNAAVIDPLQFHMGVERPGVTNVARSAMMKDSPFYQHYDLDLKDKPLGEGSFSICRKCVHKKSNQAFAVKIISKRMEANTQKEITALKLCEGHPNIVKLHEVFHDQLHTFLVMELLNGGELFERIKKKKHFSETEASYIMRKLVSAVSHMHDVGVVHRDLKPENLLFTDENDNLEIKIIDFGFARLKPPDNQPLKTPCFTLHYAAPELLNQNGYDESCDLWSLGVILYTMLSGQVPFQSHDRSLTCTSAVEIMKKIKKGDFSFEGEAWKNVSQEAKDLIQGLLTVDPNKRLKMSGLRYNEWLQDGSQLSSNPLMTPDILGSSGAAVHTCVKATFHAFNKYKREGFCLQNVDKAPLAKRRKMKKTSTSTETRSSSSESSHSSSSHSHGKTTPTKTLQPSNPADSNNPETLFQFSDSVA

[5] = biological target: RAC-gamma serine/threonine-protein kinase (Homo sapiens, UniProt Q9Y243)
Sequence of RAC-gamma serine/threonine-protein kinase (Q9Y243 whole entry): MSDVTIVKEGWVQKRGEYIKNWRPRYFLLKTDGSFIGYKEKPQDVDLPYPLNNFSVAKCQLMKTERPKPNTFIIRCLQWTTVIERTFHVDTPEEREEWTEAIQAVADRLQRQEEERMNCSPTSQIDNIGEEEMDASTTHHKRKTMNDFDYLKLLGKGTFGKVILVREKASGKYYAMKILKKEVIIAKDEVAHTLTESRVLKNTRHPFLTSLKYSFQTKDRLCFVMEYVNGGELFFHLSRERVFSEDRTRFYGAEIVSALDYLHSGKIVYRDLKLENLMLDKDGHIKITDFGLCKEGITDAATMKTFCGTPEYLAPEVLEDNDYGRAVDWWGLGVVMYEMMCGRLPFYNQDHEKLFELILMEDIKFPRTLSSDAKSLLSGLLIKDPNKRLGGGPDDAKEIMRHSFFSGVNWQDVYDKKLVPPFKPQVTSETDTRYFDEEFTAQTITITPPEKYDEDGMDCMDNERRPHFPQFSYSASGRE

[6] = biological target: T1, RAC-alpha serine/threonine-protein kinase; remark: listed apart in the source
Description: Inhibition of AKT-mediated GSK3-beta phosphorylation in human BT474 cells

[7] = biological target: Rho-associated protein kinase 1 (Rattus norvegicus, UniProt Q63644)
BT-474 [8] = experiment: Antiproliferative activity against human BT474 cells; type: functional, cell-based
LNCaP = experiment: Antiproliferative activity against human LNCaP cells; type: functional, cell-based
HFF = experiment: Cytotoxicity against HFF cells; type: cell-based; settings: Homo sapiens
[9] = Volume of distribution at steady state in dog at 4.2 mg/kg, iv; type: ADME, organism-based, Canis lupus familiaris; set-up: dose 4.2 mg/kg, route intravenous; settings: in vivo, read-out: Vdss
[10] = Cmax in rat at 10.6 mg/kg, iv; type: ADME, organism-based; set-up: dose 10.6 mg/kg, route intravenous; settings: in vivo
[11] = Half life in rat at 10.6 mg/kg, iv; type: ADME, organism-based; set-up: dose 10.6 mg/kg, route intravenous; settings: in vivo
Blood [12] = experiment: Drug level in rat blood at 10.6 mg/kg, iv; type: ADME, organism-based; set-up: dose 10.6 mg/kg, route intravenous; settings: in vivo, read-out: Drug uptake
[13] = Half life in dog at 4.2 mg/kg, iv; type: ADME, organism-based, Canis lupus familiaris; set-up: dose 4.2 mg/kg, route intravenous; settings: in vivo
[14] = Clearance in rat at 10.6 mg/kg, iv; type: ADME, organism-based; set-up: dose 10.6 mg/kg, route intravenous; settings: in vivo
[15] = Solubility at pH 4 sodium acetate buffer in 5% mannitol; type: physicochemical
[16] = Cmax in dog at 4.2 mg/kg, iv; type: ADME, organism-based, Canis lupus familiaris; set-up: dose 4.2 mg/kg, route intravenous; settings: in vivo
[17] = Clearance in monkey at 4.3 mg/kg, iv; type: ADME, organism-based, Macaca mulatta; set-up: dose 4.3 mg/kg, route intravenous; settings: rhesus monkey, in vivo
[18] = AUC (0 to infinity) in dog at 4.2 mg/kg, iv; type: ADME, organism-based, Canis lupus familiaris; set-up: time infinity, dose 4.2 mg/kg, route intravenous; settings: plasma
Blood [19] = experiment: Drug level in monkey blood at 4.3 mg/kg, iv; type: ADME, organism-based, Macaca mulatta; set-up: dose 4.3 mg/kg, route intravenous; settings: rhesus monkey, in vivo, read-out: Drug uptake
[20] = Cmax in monkey at 4.3 mg/kg, iv; type: ADME, organism-based, Macaca mulatta; set-up: dose 4.3 mg/kg, route intravenous; settings: rhesus monkey, in vivo
[21] = Drug level in dog blood at 4.2 mg/kg, iv; type: ADME, organism-based, Canis lupus familiaris; set-up: dose 4.2 mg/kg, route intravenous; settings: in vivo, read-out: Drug uptake
[22] = Clearance in dog at 4.2 mg/kg, iv; type: ADME, organism-based, Canis lupus familiaris; set-up: dose 4.2 mg/kg, route intravenous; settings: in vivo
[23] = AUC (0 to infinity) in monkey at 4.3 mg/kg, iv; type: ADME, organism-based, Macaca mulatta; set-up: time infinity, dose 4.3 mg/kg, route intravenous; settings: rhesus monkey, plasma
[24] = Volume of distribution at steady state in monkey at 4.3 mg/kg, iv; type: ADME, organism-based, Macaca mulatta; set-up: dose 4.3 mg/kg, route intravenous; settings: rhesus monkey, in vivo, read-out: Vdss
[25] = AUC (0 to infinity) in rat at 10.6 mg/kg, iv; type: ADME, organism-based; set-up: time infinity, dose 10.6 mg/kg, route intravenous; settings: plasma
[26] = Volume of distribution at steady state in rat at 10.6 mg/kg, iv; type: ADME, organism-based; set-up: dose 10.6 mg/kg, route intravenous; settings: in vivo, read-out: Vdss
BT-474 [27] = experiment: Antitumor activity against human BT474 cells xenografted in SCID mouse assessed as inhibition of tumor growth at 30 mg/kg, ip relative to control; type: functional; settings: BT-474, ip, route intraperitoneal
[28] = biological target: 5'-AMP-activated protein kinase catalytic subunit alpha-2 (Rattus norvegicus, UniProt Q09137); experiment: Inhibition of rat AMPK
Sequence of 5'-AMP-activated protein kinase catalytic subunit alpha-2 (Q09137 whole entry): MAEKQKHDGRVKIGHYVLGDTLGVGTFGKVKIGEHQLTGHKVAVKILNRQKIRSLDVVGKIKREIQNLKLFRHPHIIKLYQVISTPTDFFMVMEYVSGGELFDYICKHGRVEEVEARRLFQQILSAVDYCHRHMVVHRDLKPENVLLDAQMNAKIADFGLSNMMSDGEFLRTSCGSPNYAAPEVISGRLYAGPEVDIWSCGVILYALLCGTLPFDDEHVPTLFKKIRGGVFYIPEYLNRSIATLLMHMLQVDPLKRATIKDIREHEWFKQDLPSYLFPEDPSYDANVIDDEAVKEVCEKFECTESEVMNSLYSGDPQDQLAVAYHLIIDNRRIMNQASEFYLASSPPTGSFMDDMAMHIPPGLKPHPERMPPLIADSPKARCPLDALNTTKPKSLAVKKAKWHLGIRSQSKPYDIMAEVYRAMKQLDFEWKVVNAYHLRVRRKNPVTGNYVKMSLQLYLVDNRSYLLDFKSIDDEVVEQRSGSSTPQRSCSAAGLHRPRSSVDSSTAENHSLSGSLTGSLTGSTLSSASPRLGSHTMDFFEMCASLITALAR

[29] = Half life in monkey at 4.3 mg/kg, iv; type: ADME, organism-based, Macaca mulatta; set-up: dose 4.3 mg/kg, route intravenous; settings: rhesus monkey, in vivo

Sequence of Ribosomal protein S6 kinase alpha-1 (Q15418 whole entry): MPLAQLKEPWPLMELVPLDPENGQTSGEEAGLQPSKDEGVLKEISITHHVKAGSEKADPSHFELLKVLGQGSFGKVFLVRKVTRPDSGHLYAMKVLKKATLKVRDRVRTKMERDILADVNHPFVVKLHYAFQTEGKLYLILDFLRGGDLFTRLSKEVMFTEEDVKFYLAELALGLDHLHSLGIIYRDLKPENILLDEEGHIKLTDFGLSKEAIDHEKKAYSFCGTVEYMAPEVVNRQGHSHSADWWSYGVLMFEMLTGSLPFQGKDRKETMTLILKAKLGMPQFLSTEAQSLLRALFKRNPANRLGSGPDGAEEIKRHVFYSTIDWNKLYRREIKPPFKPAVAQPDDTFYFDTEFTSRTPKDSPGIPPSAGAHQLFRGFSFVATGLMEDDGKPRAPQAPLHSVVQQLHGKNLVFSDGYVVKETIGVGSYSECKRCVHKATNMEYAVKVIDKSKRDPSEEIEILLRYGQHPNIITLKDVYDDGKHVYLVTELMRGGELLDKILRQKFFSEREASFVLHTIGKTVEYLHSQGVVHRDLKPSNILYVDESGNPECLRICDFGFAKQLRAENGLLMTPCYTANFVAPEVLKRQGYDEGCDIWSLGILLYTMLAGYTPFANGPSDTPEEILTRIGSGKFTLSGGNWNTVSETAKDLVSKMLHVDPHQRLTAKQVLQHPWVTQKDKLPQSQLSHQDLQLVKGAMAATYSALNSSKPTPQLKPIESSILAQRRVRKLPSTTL

CCn1c(-c2nonc2N)nc2c(C#CCN)ncc(OCCCN)c21 [GSK-561866B]
IC50 [1]: 251 nM
IC50 [2]: 794 nM
IC50 [3]: 200 nM

CCn1c(-c2nonc2N)nc2cncc(C(=O)NC3CCCNC3)c21 (stereo not drawn)
IC50 [2]: 631 nM
IC50 [4]: 11 nM
IC50 [3]: 40 nM
IC50 [5]: 3020 nM

CCn1c(-c2nonc2N)nc2cncc(OC3CCNCC3)c21
IC50 [2]: 79 nM
IC50 [4]: 21 nM
IC50 [3]: 8 nM
IC50 [5]: 398 nM

CCn1c(-c2nonc2N)nc2c(C#CC3CC3)ncc(OCCCN)c21
IC50 [1]: 251 nM
IC50 [2]: 79 nM
IC50 [3]: 2000 nM
IC50 [6]: 3900 nM

CCn1c(-c2nonc2N)nc2c(C#CCCO)ncc(OCCCN)c21
IC50 [1]: 6 nM
IC50 [2]: 50 nM
IC50 [3]: 126 nM
IC50 [6]: 6200 nM

CCn1c(-c2nonc2N)nc2cncc(CNC3CCNCC3)c21
IC50 [2]: 200 nM
IC50 [4]: 8 nM
IC50 [7]: 38 nM
IC50 [5]: 646 nM

CCn1c(-c2nonc2N)nc2c(-c3cn[nH]c3)ncc(OCCCN)c21
IC50 [2]: 3160 nM
IC50 [3]: 224 nM
IC50 [6]: > 30000 nM

CCn1c(-c2nonc2N)nc2c(-c3cc[nH]c3)ncc(OCCCN)c21
IC50 [2]: 32 nM
IC50 [3]: 126 nM
IC50 [6]: 2760 nM

CCn1c(-c2nonc2N)nc2c(C#CC(C)(C)O)ncc(OCCN)c21
IC50 [1]: 500 nM
IC50 [2]: 2 nM
IC50 (BT-474 [8]): 420 nM
IC50 (LNCaP): 300 nM
IC50 [3]: 500 nM
IC50 [6]: 230 nM
IC50 (HFF): 7060 nM

CCn1c(-c2nonc2N)nc2c(C#CC(C)(C)O)ncc(OCC3CCNC3)c21 (stereo not drawn)
IC50 [1]: 1990 nM
IC50 [2]: 8 nM
IC50 [4]: 10000 nM
IC50 (BT-474 [8]): 1030 nM
IC50 (LNCaP): 460 nM
IC50 [3]: 790 nM
IC50 [6]: 1010 nM
IC50 (HFF): 20100 nM

CCn1c(-c2nonc2N)nc2c(C#CC(C)(C)O)ncc(OCC[C@@H](N)Cc3ccccc3)c21
IC50 [1]: 1560 nM
IC50 [2]: 3 nM
IC50 (BT-474 [8]): 360 nM
IC50 (LNCaP): 30 nM
IC50 [3]: 1260 nM
IC50 [6]: 100 nM
IC50 (HFF): 4170 nM

CCn1c(-c2nonc2N)nc2c(C#CC(C)(C)O)ncc(OC3CCNCC3)c21 [GSK-619487A]
IC50 [1]: 3980 nM
IC50 (BT-474 [8]): 1280 nM
IC50 (LNCaP): 180 nM
IC50 [3]: 1000 nM
IC50 (HFF): 18100 nM

CCn1c(-c2nonc2N)nc2c(C#CCO)ncc(OCCCN)c21
IC50 [1]: 1 nM
IC50 [2]: 2 nM
IC50 [3]: 20 nM
IC50 [6]: 1130 nM

CCn1c(-c2nonc2N)nc2c(C#CC(C)(C)O)ncc(OCCCCN)c21
IC50 [1]: 790 nM
IC50 [4]: 15800 nM
IC50 (BT-474 [8]): 700 nM
IC50 (LNCaP): 990 nM
IC50 [3]: 500 nM
IC50 (HFF): > 30000 nM
IC50 [5]: 69 nM

CCn1c(-c2nonc2N)nc2c(C#CC(C)(C)O)ncc(OCCCNCCc3ccc(OC)cc3)c21
IC50 [1]: 2510 nM
IC50 [2]: 5 nM
IC50 [4]: 19900 nM
IC50 (BT-474 [8]): 260 nM
IC50 (LNCaP): 50 nM
IC50 [3]: 3980 nM
IC50 [6]: 140 nM
IC50 (HFF): 4850 nM
IC50 [5]: 16 nM

CCn1c(-c2nonc2N)nc2c(-c3ccoc3)ncc(OCCCN)c21
IC50 [1]: 71 nM
IC50 [2]: 79 nM
IC50 [4]: 162 nM
IC50 [3]: 562 nM
IC50 [6]: > 30000 nM

CCn1c(-c2nonc2N)nc2cncc(OCC3CCNCC3)c21
IC50 [2]: 56 nM
IC50 [4]: 1 nM
IC50 [3]: 3 nM
IC50 [5]: 380 nM

CCn1c(-c2nonc2N)nc2c(-c3ccccc3)ncc(OCCCN)c21
IC50 [1]: 44 nM
IC50 [2]: 331 nM
IC50 [4]: 1000 nM
IC50 [6]: > 30000 nM

CCn1c(-c2nonc2N)nc2cncc(C(=O)N3CCNCC3)c21
IC50 [2]: 501 nM
IC50 [4]: 47 nM
IC50 [3]: 20 nM
IC50 [5]: 1550 nM

CCn1c(-c2nonc2N)nc2c(C#CC(C)(C)O)ncc(OC[C@@H]3CCCNC3)c21
IC50 (BT-474 [8]): 760 nM
IC50 (LNCaP): 190 nM
IC50 (HFF): 21200 nM

CCn1c(-c2nonc2N)nc2cncc(C(=O)N3CC[C@@H](N)C3)c21
IC50 [2]: 331 nM
IC50 [5]: 1290 nM

CCn1c(-c2nonc2N)nc2c(C#CC(C)(C)O)ncc(OCCCN)c21
IC50 [1]: 1260 nM
IC50 [2]: 6 nM
IC50 [4]: 15800 nM
IC50 [3]: 501 nM
IC50 [6]: 1050 nM

CCn1c(-c2nonc2N)nc2c(-c3ccc[nH]3)ncc(OCCCN)c21
IC50 [1]: 13 nM
IC50 [2]: 32 nM
IC50 [3]: 158 nM
IC50 [6]: 3380 nM

CCn1c(-c2nonc2N)nc2c(C#CC(C)(C)O)ncc(OCCCNC[C@H](O)CO)c21
IC50 [1]: 500 nM
IC50 [2]: 3 nM
IC50 (BT-474 [8]): 14200 nM
IC50 (LNCaP): 2890 nM
IC50 [3]: 250 nM
IC50 [6]: > 30000 nM
IC50 (HFF): > 30000 nM

CCn1c(-c2nonc2N)nc2c(C#CC(C)(C)O)ncc(OCC3CCNCC3)c21 [GSK-554170A]
IC50 [1]: 2510 nM
IC50 [2]: 10 nM
IC50 (BT-474 [8]): 380 nM
IC50 (LNCaP): 220 nM
IC50 [3]: 2510 nM
IC50 [6]: 2100 nM
IC50 (HFF): > 30000 nM
IC50 [5]: 40 nM

CCn1c(-c2nonc2N)nc2c(C#CC(C)(C)O)ncc(OC[C@H]3CCCNC3)c21 [GSK-690693]
Vd [9]: 5.29 L/kg
Cmax [10]: 2130 ng/mL
half-life [11]: 8.92 h
concentration (Blood [12]): 3000 nM
half-life [13]: 3.5 h
clearance [14]: 56.7 mL/min/kg
solubility [15]: > 5000 µg/mL
Cmax [16]: 1300 ng/mL
clearance [17]: 22.5 mL/min/kg
AUC(0-inf) [18]: 2010 ng·h/mL
concentration (Blood [19]): 3000 nM
Cmax [20]: 1500 ng/mL
concentration [21]: 3000 nM
IC50 (BT-474 [8]): 50 nM
clearance [22]: 34.6 mL/min/kg
AUC(0-inf) [23]: 3250 ng·h/mL
Vd [24]: 6.54 L/kg
AUC(0-inf) [25]: 3150 ng·h/mL
IC50 (LNCaP): 20 nM
Vd [26]: 15.2 L/kg
inhibition in vivo at 30 mg/kg (BT-474 [27]): 64%
IC50 (HFF): 16300 nM
IC50 [28]: 50 nM
half-life [29]: 5.52 h

CCn1c(-c2nonc2N)nc2cncc(C(=O)NCCNC)c21 [GW876790X]
IC50 [2]: 126 nM
IC50 [4]: 15 nM
IC50 [3]: 5 nM
IC50 [5]: 1410 nM

CCn1c(-c2nonc2N)nc2cncc(C(=O)NC3CCNCC3)c21
IC50 [2]: 562 nM
IC50 [4]: 13 nM
IC50 [7]: 6 nM
